In patent US10603298B2, “Succinate dehydrogenase inhibitors (SDHi's)” (Medical Research Council, priority 2014, dated 2020):

Tests used:
[1] = test system: succinate accumulation in the ischaemic myocardium; experiment: Succinate accumulation in the ischaemic myocardium in vivo (LC-MS); settings: i.v. infusion in vivo, mouse; 30 min ischaemia
Experimental: For the in vivo heart IR model an open-chest, in situ heart model was used^31,32. Male mice (8-10 weeks; Charles River Laboratories, UK) were anaesthetised with sodium pentobarbital (70 mg/kg intraperitoneally (i.p.)), intubated endotracheally and ventilated with 3 cm H2O positive-end expiratory pressure. Adequacy of anaesthesia was monitored using corneal and withdrawal reflexes. Ventilation frequency was kept at 110 breaths per minute with tidal volume between 125-150 μL. A thoracotomy was performed and the heart exposed by stripping the pericardium. A prominent branch of the left anterior descending coronary artery (LAD) was surrounded by a 7-0 Prolene suture that was then passed through a small plastic tube. Ischaemia was induced by tightening the tubing against the heart surface. To assess metabolites during IR in vivo, mice were divided into three groups: 30 min ischaemia, 30 min ischaemia plus 5 min reperfusion and 30 min sham-operation in which the suture was placed but the LAD was not occluded. At the end of each protocol tissue was removed from the at risk and peripheral areas of the heart, selected visually by comparing white versus red tissue, and snap-frozen in liquid nitrogen. Sham-operated tissue was removed from the presumed risk zone. Infarct size was assessed after 30 min of ischaemia followed by 120 min reperfusion using 2% triphenyltetrazolium chloride staining and is expressed as a percentage of the risk zone^33. […] For the LC separation, column A was Sequant Zic-Hilic (150 mm×4.6 mm, internal diameter 3.5 μm) with a guard column (20 mm×2.1 mm 3.5 μm) from HiChrom, Reading, UK. […] (150 mm×2.1 mm i.d. 3.5 μm) with guard column (20 mm×2.1 mm i.d. […]) from HiChrom, Reading, UK. […] Spectra were analysed using both targeted and untargeted approaches. For the targeted approach spectra were analysed using XCalibur Qual Browser and XCalibur Quan Browser softwares (Thermo Scientific) by referencing to an internal library of compounds. […] The arrays of spectra were then statistically analysed using the functions explore.data and univariate of the R package mum a^40.

[2] = test system: complex II; settings: cited from earlier work; for concentration to achieve half-maximal inhibition: Drose et al 2011
[3] = test system: heart, simulated ischemia-reperfusion injury; settings: Wojtovich et al 2009; mKATP channel dependent mechanism; cited from earlier work
[4] = test system: ischemia-reperfusion injury; settings: chemical preconditioning, rats; Hu et al, Hirata et al; cited from earlier work
[5] = test system: ischaemic succinate accumulation (GABA shunt); experiment: Ex vivo perfused mouse heart, no flow ischaemia: succinate abundance (LC-MS); settings: 30 min no flow ischaemia, vigabatrin 100, 300, 700 μM
Experimental: FIG. 9: Effect of GABA transaminase inhibition by vigabatrin on GABA shunt and CAC metabolites in the ischaemic myocardium. Perfused mouse hearts were subjected to 30 min no flow ischaemia±continuous infusion of vigabatrin (Vig; 100, 300, and 700 μM) 10 min prior to ischaemia. Heart tissue was snap frozen and a, GABA and b, succinate abundance quantified relative to normoxic levels by LC-MS. n=3, * p<0.05.
Mice were heparinised (200 U i.p.) and anaesthetised with sodium pentobarbital (100 mg/kg i.p.). […]
Equal amounts wet weight murine tissue were lysed in 250 μL extraction solution (ES; 30% acetonitrile, 50% methanol and 20% water) per 10 mg tissue in Precellysis 24 vials, following the manufacturer's instructions. […] For the LC separation, column A was Sequant Zic-Hilic (150 mm×4.6 mm, internal diameter 3.5 μm) with a guard column (20 mm×2.1 mm 3.5 μm) from HiChrom, Reading, UK. […] Gradient: 0-3 min 80% B, 25 min 20% B, 26 min 80% B, 36 min 80% B. Column B was sequant Zic-pHilic (150 mm×2.1 mm i.d. 3.5 μm) with guard column (20 mm×2.1 mm i.d. 3.5 Mm) from HiChrom, Reading, UK. […] Spectra were analysed using both targeted and untargeted approaches. For the targeted approach spectra were analysed using XCalibur Qual Browser and XCalibur Quan Browser softwares (Thermo Scientific) by referencing to an internal library of compounds. […]

NOCC(=O)O [AOA, aminooxyacetate]
succinate accumulation in the ischaemic myocardium [1]: decreased ischaemic succinate levels

O=C(CC(=O)C(F)(F)F)c1cccs1 [TTFA, 2-thenoyltrifluoroacetone]
reversibility of complex II inhibition [2]: irreversible

COc1[nH]c(=O)c(C(=O)[C@@H](C)C[C@H](C)[C@@H](Cl)CCl)c(O)c1OC [atpennin A5]
concentration to achieve half-maximal inhibition [2]: nanomolar levels | reversibility of complex II inhibition [2]: irreversible | protection of the heart against simulated ischemia-reperfusion injury [3]: protects the heart against simulated ischemia-reperfusion injury

O=C(O)CC(=O)O [malonate]
concentration to achieve half-maximal inhibition [2]: millimolar levels

O=C(O)CC[N+](=O)[O-] [3-nitropropionate]
reversibility of complex II inhibition [2]: irreversible | ischemia-reperfusion injury [4]: reduced ischemia-reperfusion injury

C=CC(N)CCC(=O)O (stereo not shown) [vigabatrin]
ischaemic succinate accumulation [5]: did not decrease ischaemic succinate accumulation

NC(=O)c1ncn([C@@H]2O[C@H](CO)[C@@H](O)[C@H]2O)c1N [AICAR, 5-amino-1-β-D-ribofuranosyl-imidazole-4-carboxamide]
succinate accumulation in the ischaemic myocardium [1]: decreased ischaemic succinate levels
